Experimental data reported in the supplement of paper PMC10307832.

Assays:
Test in all cases: relative viability (nuclei count vs DMSO), 5 days (fraction); higher = more cells survive
Pictilisib + Lapatinib = compound: CS(=O)(=O)N1CCN(Cc2cc3nc(-c4cccc5[nH]ncc45)nc(N4CCOCC4)c3s2)CC1 [Pictilisib] + CS(=O)(=O)CCNCc1ccc(-c2ccc3ncnc(Nc4ccc(OCc5cccc(F)c5)c(Cl)c4)c3c2)o1 [Lapatinib] (partner 2 µM)
Method in brief: (§1)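 Each reported value is a median over duplicate plates. It expresses relative viability: treated-well nuclei count divided by vehicle-well nuclei count. Lung cancer cell lines in 1536-well plates were dosed by pin tool a day after seeding, alone with one drug or with a fixed anchor-drug dose plus five library-drug doses (not always all listed) in √10 steps, and nuclei were counted after 5 days.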

Pictilisib + Phenformin = compound: CS(=O)(=O)N1CCN(Cc2cc3nc(-c4cccc5[nH]ncc45)nc(N4CCOCC4)c3s2)CC1 [Pictilisib] + N=C(N)NC(=N)NCCc1ccccc1 [Phenformin] (partner 250 µM)
Method in brief: as §1

MK-2206 + Navitoclax = compound: NC1(c2ccc(-c3nc4ccn5c(=O)[nH]nc5c4cc3-c3ccccc3)cc2)CCC1 [MK-2206] + CC1(C)CCC(c2ccc(Cl)cc2)=C(CN2CCN(c3ccc(C(=O)NS(=O)(=O)c4ccc(N[C@H](CCN5CCOCC5)CSc5ccccc5)c(S(=O)(=O)C(F)(F)F)c4)cc3)CC2)C1 [Navitoclax] (partner 0.5 µM)
Method in brief: as §1

MK-2206 + Luminespib = compound: NC1(c2ccc(-c3nc4ccn5c(=O)[nH]nc5c4cc3-c3ccccc3)cc2)CCC1 [MK-2206] + CCNC(=O)c1noc(-c2cc(C(C)C)c(O)cc2O)c1-c1ccc(CN2CCOCC2)cc1 [Luminespib] (partner 0.01 µM)
Method in brief: as §1

MK-2206 + Decitabine = compound: NC1(c2ccc(-c3nc4ccn5c(=O)[nH]nc5c4cc3-c3ccccc3)cc2)CCC1 [MK-2206] + Nc1ncn([C@H]2C[C@H](O)[C@@H](CO)O2)c(=O)n1 [Decitabine] (partner 2 µM)
Method in brief: as §1

Cell Line | relative viability (Pictilisib + Lapatinib; first compound 0.02 µM) | relative viability (Pictilisib + Lapatinib; first compound 0.06325 µM) | relative viability (Pictilisib + Lapatinib; first compound 0.6325 µM) | relative viability (Pictilisib + Lapatinib; first compound 2 µM) | relative viability (Pictilisib + Phenformin; first compound 0.02 µM) | relative viability (Pictilisib + Phenformin; first compound 0.06325 µM) | relative viability (Pictilisib + Phenformin; first compound 0.6325 µM) | relative viability (Pictilisib + Phenformin; first compound 2 µM) | relative viability (MK-2206 + Navitoclax; first compound 0.01 µM) | relative viability (MK-2206 + Navitoclax; first compound 0.03162 µM) | relative viability (MK-2206 + Navitoclax; first compound 0.3162 µM) | relative viability (MK-2206 + Navitoclax; first compound 1 µM) | relative viability (MK-2206 + Luminespib; first compound 0.01 µM) | relative viability (MK-2206 + Luminespib; first compound 0.03162 µM) | relative viability (MK-2206 + Luminespib; first compound 0.3162 µM) | relative viability (MK-2206 + Luminespib; first compound 1 µM) | relative viability (MK-2206 + Decitabine; first compound 0.01 µM) | relative viability (MK-2206 + Decitabine; first compound 0.03162 µM) | relative viability (MK-2206 + Decitabine; first compound 0.3162 µM) | relative viability (MK-2206 + Decitabine; first compound 1 µM)
LK-2 | 0.947 | 1 | 0.618 | 0.405 | 0.468 | 0.379 | 0.176 | 0.143 | 0.837 | 0.938 | 0.684 | 0.61 | 0.173 | 0.199 | 0.212 | 0.17 | 0.36 | 0.355 | 0.286 | 0.12
LOU-NH91 | 0.787 | 0.733 | 0.621 | 0.525 | 0.773 | 0.812 | 0.609 | 0.461 | 0.702 | 0.745 | 0.749 | 0.621 | 0.344 | 0.303 | 0.32 | 0.373 | 0.783 | 0.839 | 0.793 | 0.768
LU99A | 0.98 | 1.04 | 0.574 | 0.372 | 0.911 | 0.869 | 0.791 | 0.532 | 0.862 | 0.77 | 0.72 | 0.822 | 0.284 | 0.251 | 0.268 | 0.203 | 0.854 | 0.937 | 0.921 | 0.903
LXF-289 | 0.91 | 0.929 | 0.925 | 0.793 | 0.508 | 0.557 | 0.452 | 0.436 | 0.914 | 1.01 | 1.01 | 0.972 | 0.661 | 0.722 | 0.728 | 0.771 | 0.398 | 0.418 | 0.412 | 0.396
NCI-H23 | 1.17 | 1.45 | 0.952 | 0.496 | 0.84 | 0.82 | 0.664 | 0.523 | 0.956 | 0.899 | 0.947 | 0.811 | 0.214 | 0.215 | 0.19 | 0.211 | 0.325 | 0.318 | 0.295 | 0.332
NCI-H322M | 0.57 | 0.588 | 0.493 | 0.423 | 0.861 | 0.773 | 0.566 | 0.418 | 1.14 | 1.13 | 1.25 | 1.1 | 0.91 | 0.95 | 0.825 | 0.882 | 0.677 | 0.735 | 0.787 | 0.624
NCI-H460 | 1.08 | 1.02 | 0.548 | 0.118 | 0.549 | 0.534 | 0.266 | 0.0575 | 1.16 | 1.16 | 1.21 | 1.07 | 0.035 | 0.0282 | 0.0298 | 0.024 | 0.491 | 0.506 | 0.513 | 0.419
